Earlier results in US11208380B2, “Process for the purification of caprolactam from a solution of crude caprolactam without organic solvent extraction” (AquafilSLO d.o.o., priority 2017, dated 2021).

Row | SMILES | LD50, rat, oral administration [mg/kg]
1 | c1ccccc1 [Benzene] | 930
2 | ClC=C(Cl)Cl [Trichloroethylene] | 5400
